According to patent publication US5968958A, “5-Methanesulfonamido-3H-isobenzofuran-1-ones as inhibitors of cyclooxygenase-2” (Merck Frosst Canada, Inc., priority 1997, dated 1999):
Where two headings read alike, the source gives them in different places.

Columns and labels:
cyclooxygenase-2 = molecular target: T1, cyclooxygenase-2 (Homo sapiens, UniProt P35354); test: Whole cell cyclooxygenase assay, PGE2 synthesis in human osteosarcoma 143 cells (COX-2); format: cell-based
T1 construct: human osteosarcoma 143 cells (which specifically express cyclooxygenase-2); endogenous in cells; host or cells: human osteosarcoma 143 cells
T1 sequence (P35354 18-604): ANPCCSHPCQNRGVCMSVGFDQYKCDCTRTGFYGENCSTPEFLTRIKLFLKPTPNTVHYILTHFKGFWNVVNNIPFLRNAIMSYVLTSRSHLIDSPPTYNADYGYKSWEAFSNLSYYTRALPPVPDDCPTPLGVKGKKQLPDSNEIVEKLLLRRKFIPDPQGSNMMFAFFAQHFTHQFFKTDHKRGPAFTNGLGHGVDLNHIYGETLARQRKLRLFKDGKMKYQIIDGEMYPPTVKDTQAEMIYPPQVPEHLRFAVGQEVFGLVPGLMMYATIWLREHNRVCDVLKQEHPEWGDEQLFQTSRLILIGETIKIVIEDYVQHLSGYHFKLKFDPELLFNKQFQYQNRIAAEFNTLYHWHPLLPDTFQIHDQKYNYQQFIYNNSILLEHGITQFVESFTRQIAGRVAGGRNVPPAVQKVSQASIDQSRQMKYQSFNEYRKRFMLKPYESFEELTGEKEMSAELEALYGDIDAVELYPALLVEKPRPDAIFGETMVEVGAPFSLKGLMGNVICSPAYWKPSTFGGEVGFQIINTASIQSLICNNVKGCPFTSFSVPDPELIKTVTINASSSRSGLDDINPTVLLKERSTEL
Experimental: (§1) Inhibition of Cyclooxygenase Activity
(§2) Compounds are tested as inhibitors of cyclooxygenase activity in whole cell cyclooxygenase assays. Both of these assays measure prostaglandin E2 synthesis in response to arachidonic acid, using a radioimmunoassay. Cells used for these assays are human osteosarcoma 143 cells (which specifically express cyclooxygenase-2) and human U-937 cells (which specifically express cyclooxygenase-1). In these assays, 100% activity is defined as the difference between prostaglandin E2 synthesis in the absence and presence of arachidonate.
(§3) In the assay, inhibition is determined by measuring the amount of prostaglandin E2 (PGE2) synthesized in the presence of arachidonic acid, cyclooxygenase-1 or cyclooxygenase-2 and a putative inhibitor. The IC50 values represent the concentration of putative inhibitor required to return PGE2 synthesis to 50% of that obtained as compared to the uninhibited control.

cyclooxygenase-1 = molecular target: T2, cyclooxygenase-1 (Homo sapiens, UniProt P23219); test: Whole cell cyclooxygenase assay, PGE2 synthesis in human U-937 cells (COX-1); format: cell-based; conditions: inhibition of PGE2 production, arachidonic acid, radioimmunoassay
T2 construct: human U-937 cells (which specifically express cyclooxygenase-1); endogenous in cells; host or cells: human U-937 cells
Experimental: as §1, §2, §3

Rat Paw edema = test: Rat Paw Edema Assay (carrageenan); format: in vivo, rat (male Sprague-Dawley); conditions: po, 1 hr before subplantar carrageenan (500 μg per paw), paw volume increase at 3 h
Experimental: Rat Paw Edema Assay--Protocol
Male Sprague-Dawley rats (150-200 g) are fasted overnight and are given po either vehicle (1% methocell or 5% Tween 80) or a test compound. One hr later, a line is drawn using a permanent marker at the level above the ankle in one hind paw to define the area of the paw to be monitored. The paw volume (V0) is measured using a plethysmometer (Ugo-Basile, Italy) based on the principle of water displacement. The animals are then injected subplantarly with 50 μl of 1% carrageenan solution in saline (FMC Corp, Maine) into the paw using an insulin syringe with a 25-gauge needle (i.e., 500 μg carrageenan per paw). Three h later, the paw volume (V3) is measured and the increases in paw volume (V3 -V0) are calculated. The animals are sacrificed by CO2 asphyxiation and the absence or presence of stomach lesions scored. Data is compared with the vehicle-control values and percent inhibition calculated. All treatment groups are coded to eliminate observer bias.

[1] = inhibition of PGE2 production, human osteosarcoma 143 cells, arachidonic acid, radioimmunoassay, read-out: Osteosarcoma cells (COX-2) IC50

T2 sequence (P23219 24-599): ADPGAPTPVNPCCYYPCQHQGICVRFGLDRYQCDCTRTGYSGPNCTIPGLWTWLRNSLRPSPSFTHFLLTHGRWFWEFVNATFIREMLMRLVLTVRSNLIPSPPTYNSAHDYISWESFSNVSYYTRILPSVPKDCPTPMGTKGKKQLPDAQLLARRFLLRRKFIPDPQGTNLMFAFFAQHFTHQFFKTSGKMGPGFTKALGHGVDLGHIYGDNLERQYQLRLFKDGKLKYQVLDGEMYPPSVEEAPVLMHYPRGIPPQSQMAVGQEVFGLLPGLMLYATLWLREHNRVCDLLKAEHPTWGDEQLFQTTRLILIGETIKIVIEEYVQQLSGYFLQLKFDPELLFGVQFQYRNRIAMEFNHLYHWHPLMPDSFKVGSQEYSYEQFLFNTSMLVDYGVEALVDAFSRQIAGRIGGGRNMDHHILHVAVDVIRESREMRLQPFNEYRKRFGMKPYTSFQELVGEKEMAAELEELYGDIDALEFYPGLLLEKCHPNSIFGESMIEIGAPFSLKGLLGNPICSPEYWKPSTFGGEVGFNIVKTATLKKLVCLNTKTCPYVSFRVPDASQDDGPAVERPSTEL

| IC50 (cyclooxygenase-2) [nM] | IC50 (cyclooxygenase-1) [nM] | IC50 (cyclooxygenase-2; [1]) [nM] | Compound | ED30 (Rat Paw edema) [mg/kg] |
| --- | --- | --- | --- | --- |
| 6 | > 100000 |  | CCc1csc(Sc2cc3c(cc2NS(C)(=O)=O)COC3=O)n1 [Example 1, 6-(4-Ethyl-2-thiazolythio)-5-methanesulfonamido-3H-isobenzofuran-1-one] | 0.16 |
|  | > 100000 | 33 | CS(=O)(=O)Nc1cc2c(cc1Sc1ccc(Cl)cn1)C(=O)OC2 [Example 2, 6-(5-Chloro-2-pyridylthio)-5-methanesulfonamido-3H-isobenzofuran-1-one] | 1.3 |
|  | > 100000 | 140 | CS(=O)(=O)Nc1cc2c(cc1Sc1nccs1)C(=O)OC2 [Example 3, 6-(2-Thiazolythio)-5-methanesulfonamido-3H-isobenzofuran-1-one] |  |
|  | > 100000 | 36.7 | Cc1csc(Sc2cc3c(cc2NS(C)(=O)=O)COC3=O)n1 [Example 4, 5-Methanesulfonamido-6-(4-methyl-2-thiazolythio)-3H-isobenzofuran-1-one] | 1 |
